Converted amounts (≈) assume the structure as drawn. The source made the active and inactive calls. The rule behind the calls is not given here.
Experiments:
[1] = test system: Caenorhabditis elegans; test: Nematicidal activity against Caenorhabditis elegans at 100 ug/ml; type: functional, organism-based
[2] = test system: Pyricularia grisea; test: Antimicrobial activity against Magnaporthe grisea assessed as inhibition of conidial germination after 16 hrs by inverted microscopic analysis; type: functional
[3] = test system: Fusarium graminearum; test: Antimicrobial activity against Fusarium graminearum assessed as inhibition of conidial germination after 16 hrs by inverted microscopic analysis; type: functional
[4] = test system: Botrytis cinerea; test: Antimicrobial activity against Botrytis cinerea assessed as inhibition of conidial germination after 16 hrs by inverted microscopic analysis; type: functional
[5] = test system: Phytophthora infestans; test: Antimicrobial activity against Phytophthora infestans assessed as inhibition of conidial germination after 16 hrs by inverted microscopic analysis; type: functional
[6] = test system: Penicillium chrysogenum; test: Antimicrobial activity against Penicillium notatum assessed as inhibition of conidial germination after 16 hrs by inverted microscopic analysis; type: functional
[7] = test system: Paecilomyces variotii; test: Antimicrobial activity against Paecilomyces variotii assessed as inhibition of conidial germination after 16 hrs by inverted microscopic analysis; type: functional
[8] = test system: Rhizomucor miehei; test: Antimicrobial activity against Mucor miehei assessed as inhibition of conidial germination after 16 hrs by inverted microscopic analysis; type: functional
[9] = test system: Brevibacillus brevis; test: Antimicrobial activity against Bacillus brevis at 50 ug/disk by agar diffusion assay; type: functional; settings: read-out: IZ
[10] = test system: Bacillus subtilis; test: Antimicrobial activity against Bacillus subtilis at 50 ug/disk by agar diffusion assay; type: functional; settings: read-out: IZ
[11] = test system: Eremothecium coryli; test: Antimicrobial activity against Nematospora coryli at 50 ug/disk by agar diffusion assay; type: functional; settings: read-out: IZ
[12] = test system: Escherichia coli; test: Antimicrobial activity against Escherichia coli K-12 by serial dilution test; type: functional
[13] = test system: Enterobacter cloacae subsp. dissolvens; test: Antimicrobial activity against Enterobacter dissolvens by serial dilution test; type: functional
[14] = test system: Proteus vulgaris; test: Antimicrobial activity against Proteus vulgaris by serial dilution test; type: functional
[15] = Cytotoxicity against human HeLaS3 cells assessed as reduction in cell proliferation; type: functional, cell-based; settings: HeLa S3
[16] = test system: Lepidium sativum; test: […] against Lepidium sativum assessed as seed germination up to 300 ug/ml; type: functional, organism-based
[17] = test system: Setaria italica; test: […] against Setaria italica assessed as seed germination up to 300 ug/ml; type: functional, organism-based
[18] = test system: Meloidogyne incognita; test: Nematicidal activity against Meloidogyne incognita at 100 ug/ml; type: functional, organism-based
[19] = test system: Lepidium sativum; test: […] against Lepidium sativum assessed as inhibition of seedling growth up to 300 ug/ml; type: functional, organism-based
[20] = test system: Setaria italica; test: […] against Setaria italica assessed as inhibition of seedling growth up to 300 ug/ml; type: functional, organism-based

Q: Which Activity [1] does the source give for `CO/C=C1/C(=O)c2c(O)cc(OC)cc2C(=O)C1(O)CC(C)=O` (configuration not stated) [ASCOMYCONE C] here?
A: inactive

Q: And the IC100 [2]?
A: 2.5 µg/mL

Q: What about the IC100 [3] of the same molecule?
A: 2.5 µg/mL

Q: What about the IC100 [4] of the same molecule?
A: 50 µg/mL

Q: And the IC100 [5]?
A: 5 µg/mL

Q: What about the IC100 [6] of the same molecule?
A: 15 µg/mL

Q: What about the IC100 [7] of the same molecule?
A: >50 µg/mL

Q: What about the IC100 [8] of the same molecule?
A: >50 µg/mL

Q: What about the zone of inhibition at 50 µg/disc [9] of the same molecule?
A: 7 mm

Q: And the zone of inhibition at 50 µg/disc [10]?
A: 0 mm

Q: What about the zone of inhibition at 50 µg/disc [11] of the same molecule?
A: 11 mm

Q: And the MIC [12]?
A: > 50 µg/mL

Q: What about the MIC [13] of the same molecule?
A: > 50 µg/mL

Q: What about the MIC [14] of the same molecule?
A: > 50 µg/mL

Q: What about the IC50 [15] of the same molecule?
A: 50 µg/mL (≈ 156 µM)

Q: And the Activity [16]?
A: inactive

Q: What about the Activity [17] of the same molecule?
A: inactive

Q: What about the Activity [18] of the same molecule?
A: inactive

Q: And the Activity [19]?
A: inactive

Q: And the Activity [20]?
A: inactive

Q: What does the source list for `COc1cc(O)c2c(c1)C(=O)C1=C(C2=O)C(OC)OC(C)=C1` (configuration not stated) [ASCOMYCONE A]?
A: Activity [1]: inactive; IC100 [4]: >50 µg/mL; IC100 [6]: >50 µg/mL; IC100 [7]: >50 µg/mL; IC100 [8]: 50 µg/mL; zone of inhibition at 50 µg/disc [9]: 14 mm; zone of inhibition at 50 µg/disc [10]: 11 mm; zone of inhibition at 50 µg/disc [11]: 0 mm; MIC [12]: > 50 µg/mL; MIC [13]: > 50 µg/mL; MIC [14]: > 50 µg/mL; IC50 [15]: 5 µg/mL (≈ 16.5 µM); Activity [16]: inactive; Activity [17]: inactive; Activity [18]: inactive; Activity [19]: inactive; Activity [20]: inactive

Q: Which results are given for `COc1cc(O)c2c(c1)C(=O)C1=C(C2=O)C(O)OC(C)=C1` (configuration not stated) [ASCOMYCONE B]?
A: Activity [1]: inactive; IC100 [2]: 1 µg/mL; IC100 [3]: 0.5 µg/mL; IC100 [4]: 5 µg/mL; IC100 [5]: 5 µg/mL; IC100 [6]: 10 µg/mL; IC100 [7]: >50 µg/mL; IC100 [8]: 10 µg/mL; zone of inhibition at 50 µg/disc [9]: 11 mm; zone of inhibition at 50 µg/disc [10]: 10 mm; zone of inhibition at 50 µg/disc [11]: 13 mm; MIC [12]: > 50 µg/mL; MIC [13]: > 50 µg/mL; MIC [14]: > 50 µg/mL; IC50 [15]: 5 µg/mL (≈ 17.3 µM); Activity [16]: inactive; Activity [17]: inactive; Activity [18]: inactive; Activity [19]: inactive; Activity [20]: inactive

Source: ChEMBL document CHEMBL1154148, “Ascomycones A-C, heptaketide metabolites from an unidentified ascomycete” (J Nat Prod, 2008)
